Experiments:
Experiment in all cases: radiometric filter-binding kinase assay, Kinase HotSpot
Conditions in all cases: compound 0.5 µM; ATP 10 µM
CSNK2A1 (human) = CSNK2A1 (human) (UniProt P68400)
PRKCE (human) = PRKCE (human) (UniProt Q02156)
VRK1 (human) = VRK1 (human) (UniProt Q99986)
NTRK1 (human) = NTRK1 (human) (UniProt P04629)
HIPK2 (human) = HIPK2 (human) (UniProt Q9H2X6)
CDK4 CCND3 (human) = CDK4 CCND3 (human) (UniProt P30281+P11802)
ULK1 (human) = ULK1 (human) (UniProt O75385)
CDK1 CCNB1 (human) = CDK1 CCNB1 (human) (UniProt P06493+P14635)
FGFR4 (human) = FGFR4 (human) (UniProt P22455)
CDK2 CCNA2 (human) = CDK2 CCNA2 (human) (UniProt P24941+P20248)
MET (human) = MET (human) (UniProt P08581)
[1] = system: FLT4 (human), P35916 [Q890H]
CDK5 CDK5R1 p25 (human) = CDK5 CDK5R1 p25 (human) (UniProt Q00535+Q15078)
RPS6KA3 KD1 KD2 (human) = RPS6KA3 KD1 KD2 (human) (UniProt P51812)
PKN2 (human) = PKN2 (human) (UniProt Q16513)
HCK (human) = HCK (human) (UniProt P08631)
TBK1 (human) = TBK1 (human) (UniProt Q9UHD2)
CLK4 (human) = CLK4 (human) (UniProt Q9HAZ1)
CLK4 (human), sequence (Q9HAZ1 whole entry, looked up): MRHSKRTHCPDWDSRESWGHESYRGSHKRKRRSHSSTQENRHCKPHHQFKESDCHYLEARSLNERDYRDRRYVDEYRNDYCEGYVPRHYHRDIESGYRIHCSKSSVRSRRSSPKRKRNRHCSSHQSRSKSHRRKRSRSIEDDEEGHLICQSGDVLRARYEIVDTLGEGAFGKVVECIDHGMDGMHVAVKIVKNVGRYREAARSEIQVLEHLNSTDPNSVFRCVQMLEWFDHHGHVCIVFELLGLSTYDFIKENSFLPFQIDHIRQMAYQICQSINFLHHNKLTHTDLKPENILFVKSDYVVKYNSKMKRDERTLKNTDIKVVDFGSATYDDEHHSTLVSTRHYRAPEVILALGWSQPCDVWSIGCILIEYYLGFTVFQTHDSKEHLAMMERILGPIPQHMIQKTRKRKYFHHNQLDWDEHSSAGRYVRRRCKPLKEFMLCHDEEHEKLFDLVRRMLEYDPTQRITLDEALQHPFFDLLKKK

AURKA (human) = AURKA (human) (UniProt O14965)
RPS6KA4 KD2 (human) = RPS6KA4 KD2 (human) (UniProt O75676)
RPS6KA4 KD2 (human), sequence (O75676 whole entry, looked up): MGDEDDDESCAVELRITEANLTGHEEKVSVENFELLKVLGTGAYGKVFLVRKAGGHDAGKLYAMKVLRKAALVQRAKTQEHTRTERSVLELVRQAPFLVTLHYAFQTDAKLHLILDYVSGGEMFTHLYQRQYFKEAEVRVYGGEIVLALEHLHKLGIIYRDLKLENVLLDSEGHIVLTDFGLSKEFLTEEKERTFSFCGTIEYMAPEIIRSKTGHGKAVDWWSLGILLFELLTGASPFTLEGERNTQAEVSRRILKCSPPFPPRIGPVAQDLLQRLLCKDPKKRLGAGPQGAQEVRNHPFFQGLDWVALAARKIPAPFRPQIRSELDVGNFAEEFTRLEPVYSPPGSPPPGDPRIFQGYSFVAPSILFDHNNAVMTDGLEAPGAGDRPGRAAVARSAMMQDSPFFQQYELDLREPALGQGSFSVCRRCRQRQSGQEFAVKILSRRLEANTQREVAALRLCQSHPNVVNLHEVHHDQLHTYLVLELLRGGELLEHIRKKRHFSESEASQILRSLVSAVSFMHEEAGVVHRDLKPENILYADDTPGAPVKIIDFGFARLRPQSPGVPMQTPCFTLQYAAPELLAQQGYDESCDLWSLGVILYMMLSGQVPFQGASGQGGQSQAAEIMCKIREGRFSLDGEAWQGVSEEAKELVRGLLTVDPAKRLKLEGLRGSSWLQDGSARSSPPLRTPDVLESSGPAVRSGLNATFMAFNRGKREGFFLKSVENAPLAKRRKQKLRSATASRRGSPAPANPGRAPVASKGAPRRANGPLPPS

GRK4 (human) = GRK4 (human) (UniProt P32298)
ROS1 (human) = ROS1 (human) (UniProt P08922)
NUAK2 (human) = NUAK2 (human) (UniProt Q9H093)
GRK6 (human) = GRK6 (human) (UniProt P43250)
SRMS (human) = SRMS (human) (UniProt Q9H3Y6)
PNCK (human) = PNCK (human) (UniProt Q6P2M8)
WEE1 (human) = WEE1 (human) (UniProt P30291)
EPHA1 (human) = EPHA1 (human) (UniProt P21709)
ULK2 (human) = ULK2 (human) (UniProt Q8IYT8)
WNK2 (human) = WNK2 (human) (UniProt Q9Y3S1)
RPS6KB2 (human) = RPS6KB2 (human) (UniProt Q9UBS0)
NEK11 (human) = NEK11 (human) (UniProt Q8NG66)
EPHA2 (human) = EPHA2 (human) (UniProt P29317)
PIM1 (human) = PIM1 (human) (UniProt P11309)
SRPK2 (human) = SRPK2 (human) (UniProt P78362)
EPHB3 (human) = EPHB3 (human) (UniProt P54753)
EPHB3 (human), sequence (P54753 whole entry, looked up): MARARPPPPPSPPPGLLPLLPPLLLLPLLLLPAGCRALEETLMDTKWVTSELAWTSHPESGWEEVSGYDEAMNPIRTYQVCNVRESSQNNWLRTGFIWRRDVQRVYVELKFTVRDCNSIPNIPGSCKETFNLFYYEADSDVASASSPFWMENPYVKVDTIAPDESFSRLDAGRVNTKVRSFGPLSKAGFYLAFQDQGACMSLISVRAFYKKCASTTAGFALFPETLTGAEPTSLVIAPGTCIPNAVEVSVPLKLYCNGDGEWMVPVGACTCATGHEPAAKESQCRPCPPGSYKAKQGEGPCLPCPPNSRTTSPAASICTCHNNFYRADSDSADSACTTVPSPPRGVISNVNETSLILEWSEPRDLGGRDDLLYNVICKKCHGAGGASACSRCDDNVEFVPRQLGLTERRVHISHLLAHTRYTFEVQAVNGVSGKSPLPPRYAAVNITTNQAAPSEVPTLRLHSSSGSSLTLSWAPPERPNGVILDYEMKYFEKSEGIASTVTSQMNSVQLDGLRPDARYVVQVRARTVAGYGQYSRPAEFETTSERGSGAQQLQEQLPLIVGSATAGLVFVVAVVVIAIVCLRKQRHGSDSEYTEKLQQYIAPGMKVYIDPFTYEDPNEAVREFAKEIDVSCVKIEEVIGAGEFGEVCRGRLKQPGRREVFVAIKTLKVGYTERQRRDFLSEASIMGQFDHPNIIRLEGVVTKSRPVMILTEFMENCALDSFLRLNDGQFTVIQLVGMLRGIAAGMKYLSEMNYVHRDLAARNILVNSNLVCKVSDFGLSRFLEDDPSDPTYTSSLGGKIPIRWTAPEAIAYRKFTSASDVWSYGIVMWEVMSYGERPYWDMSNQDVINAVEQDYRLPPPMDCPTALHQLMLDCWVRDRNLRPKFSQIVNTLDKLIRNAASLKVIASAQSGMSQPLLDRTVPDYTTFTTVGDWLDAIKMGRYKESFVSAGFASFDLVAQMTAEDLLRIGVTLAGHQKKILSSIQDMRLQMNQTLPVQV

ACVRL1 (human) = ACVRL1 (human) (UniProt P37023)
CSNK2A2 (human) = CSNK2A2 (human) (UniProt P19784)
MAP3K9 (human) = MAP3K9 (human) (UniProt P80192)
MAPKAPK3 (human) = MAPKAPK3 (human) (UniProt Q16644)
MAPKAPK3 (human), sequence (Q16644 whole entry, looked up): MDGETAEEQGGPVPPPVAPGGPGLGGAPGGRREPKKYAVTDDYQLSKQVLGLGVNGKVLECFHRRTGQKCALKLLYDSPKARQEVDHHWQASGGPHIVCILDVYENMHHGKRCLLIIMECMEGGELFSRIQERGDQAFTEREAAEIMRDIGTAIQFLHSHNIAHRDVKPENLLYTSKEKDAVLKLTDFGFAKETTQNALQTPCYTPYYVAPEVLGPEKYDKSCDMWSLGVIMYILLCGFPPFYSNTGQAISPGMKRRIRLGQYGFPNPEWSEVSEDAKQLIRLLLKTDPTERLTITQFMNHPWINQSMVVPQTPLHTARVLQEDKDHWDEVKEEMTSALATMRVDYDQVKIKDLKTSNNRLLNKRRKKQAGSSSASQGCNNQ

ERBB2 (human) = ERBB2 (human) (UniProt P04626)
ERBB2 (human), sequence (P04626 whole entry, looked up): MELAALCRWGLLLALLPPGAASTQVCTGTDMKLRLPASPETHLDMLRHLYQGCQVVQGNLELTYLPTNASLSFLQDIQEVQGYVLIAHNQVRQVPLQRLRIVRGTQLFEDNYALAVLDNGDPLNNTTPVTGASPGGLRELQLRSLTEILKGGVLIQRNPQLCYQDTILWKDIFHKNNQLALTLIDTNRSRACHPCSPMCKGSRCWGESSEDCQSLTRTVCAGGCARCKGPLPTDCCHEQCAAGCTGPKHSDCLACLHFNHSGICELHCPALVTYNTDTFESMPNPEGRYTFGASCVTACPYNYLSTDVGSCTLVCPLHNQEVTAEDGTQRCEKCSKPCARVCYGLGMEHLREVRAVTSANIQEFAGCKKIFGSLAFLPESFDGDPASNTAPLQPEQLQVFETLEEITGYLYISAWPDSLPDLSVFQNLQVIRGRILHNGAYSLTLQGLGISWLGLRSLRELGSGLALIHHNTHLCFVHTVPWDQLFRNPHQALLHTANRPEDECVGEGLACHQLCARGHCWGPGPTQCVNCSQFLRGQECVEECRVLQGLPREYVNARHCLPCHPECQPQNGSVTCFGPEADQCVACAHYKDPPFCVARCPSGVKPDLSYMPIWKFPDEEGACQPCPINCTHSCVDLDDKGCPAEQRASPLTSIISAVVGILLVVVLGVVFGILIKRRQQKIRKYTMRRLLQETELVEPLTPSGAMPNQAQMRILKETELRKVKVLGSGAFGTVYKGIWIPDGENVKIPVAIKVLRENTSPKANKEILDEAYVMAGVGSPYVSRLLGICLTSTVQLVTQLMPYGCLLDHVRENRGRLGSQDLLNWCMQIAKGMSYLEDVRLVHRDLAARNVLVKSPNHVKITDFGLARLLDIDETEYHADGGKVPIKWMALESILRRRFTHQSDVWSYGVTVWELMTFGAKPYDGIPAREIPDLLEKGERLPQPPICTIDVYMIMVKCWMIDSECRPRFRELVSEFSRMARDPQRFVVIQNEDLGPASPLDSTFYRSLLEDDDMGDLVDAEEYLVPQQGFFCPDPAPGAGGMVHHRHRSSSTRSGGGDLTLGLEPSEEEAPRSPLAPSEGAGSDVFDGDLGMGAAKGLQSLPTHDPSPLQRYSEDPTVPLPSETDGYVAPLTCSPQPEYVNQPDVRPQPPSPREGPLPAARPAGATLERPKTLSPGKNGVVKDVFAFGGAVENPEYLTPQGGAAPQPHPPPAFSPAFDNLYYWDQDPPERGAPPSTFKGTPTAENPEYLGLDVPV

ULK1 (human), sequence (O75385 whole entry, looked up): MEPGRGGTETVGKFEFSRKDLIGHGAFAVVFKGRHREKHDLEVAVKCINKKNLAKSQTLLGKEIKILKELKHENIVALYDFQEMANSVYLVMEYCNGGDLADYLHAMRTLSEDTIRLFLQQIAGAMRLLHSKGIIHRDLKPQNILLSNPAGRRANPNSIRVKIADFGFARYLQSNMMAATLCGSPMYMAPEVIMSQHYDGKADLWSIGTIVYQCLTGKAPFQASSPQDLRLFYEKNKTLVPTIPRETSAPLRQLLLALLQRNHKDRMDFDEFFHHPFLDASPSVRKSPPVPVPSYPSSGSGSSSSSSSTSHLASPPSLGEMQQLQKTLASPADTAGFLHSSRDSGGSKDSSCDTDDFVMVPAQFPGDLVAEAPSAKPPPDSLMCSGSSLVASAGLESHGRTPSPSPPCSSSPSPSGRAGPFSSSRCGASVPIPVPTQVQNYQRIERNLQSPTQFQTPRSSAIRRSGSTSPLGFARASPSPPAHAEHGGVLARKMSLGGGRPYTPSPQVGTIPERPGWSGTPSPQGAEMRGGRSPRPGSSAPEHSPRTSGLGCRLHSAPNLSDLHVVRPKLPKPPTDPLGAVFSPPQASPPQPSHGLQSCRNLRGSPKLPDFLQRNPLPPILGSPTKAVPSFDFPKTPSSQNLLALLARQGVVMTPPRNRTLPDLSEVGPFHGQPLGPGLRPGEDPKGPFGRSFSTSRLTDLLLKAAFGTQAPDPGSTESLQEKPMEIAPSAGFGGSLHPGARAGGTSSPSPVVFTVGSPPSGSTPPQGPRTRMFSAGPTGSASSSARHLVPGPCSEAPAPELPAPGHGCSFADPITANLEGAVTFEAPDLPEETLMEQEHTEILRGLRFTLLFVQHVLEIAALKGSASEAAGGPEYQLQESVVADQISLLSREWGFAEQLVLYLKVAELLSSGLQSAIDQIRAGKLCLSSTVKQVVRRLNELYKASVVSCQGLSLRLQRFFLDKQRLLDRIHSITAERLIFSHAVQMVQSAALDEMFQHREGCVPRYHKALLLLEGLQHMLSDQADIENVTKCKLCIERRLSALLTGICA

Question: With COc1ccc2c(c1)c(C1=C(c3c[nH]c4ccccc34)C(=O)NC1=O)cn2CCCN(C)C as the compound, how does the residual activity (CSNK2A1 (human)) read?
Answer: 95.9%

Question: And the residual activity (PRKCE (human))?
Answer: 14.6%

Question: And the residual activity (VRK1 (human))?
Answer: 76.7%

Question: And the residual activity (NTRK1 (human))?
Answer: 83.1%

Question: And the residual activity (HIPK2 (human))?
Answer: 96.3%

Question: And the residual activity (CDK4 CCND3 (human))?
Answer: 95.5%

Question: And the residual activity (ULK1 (human))?
Answer: 99%

Question: What about the residual activity (CDK1 CCNB1 (human)) of the same compound?
Answer: 94.4%

Question: And the residual activity (FGFR4 (human))?
Answer: 79.2%

Question: What about the residual activity (CDK2 CCNA2 (human)) of the same compound?
Answer: 112%

Question: And the residual activity (MET (human))?
Answer: 85.6%

Question: And the residual activity [1]?
Answer: 23.6%

Question: What about the residual activity (CDK5 CDK5R1 p25 (human)) of the same compound?
Answer: 114%

Question: What about the residual activity (RPS6KA3 KD1 KD2 (human)) of the same compound?
Answer: 6.55%

Question: What about the residual activity (PKN2 (human)) of the same compound?
Answer: 95%

Question: What about the residual activity (HCK (human)) of the same compound?
Answer: 111%

Question: What about the residual activity (TBK1 (human)) of the same compound?
Answer: 90.7%

Question: And the residual activity (CLK4 (human))?
Answer: 32.8%

Question: And the residual activity (AURKA (human))?
Answer: 86.6%

Question: And the residual activity (RPS6KA4 KD2 (human))?
Answer: 78.6%

Question: And the residual activity (GRK4 (human))?
Answer: 92.8%

Question: And the residual activity (ROS1 (human))?
Answer: 52.4%

Question: What about the residual activity (NUAK2 (human)) of the same compound?
Answer: 81%

Question: And the residual activity (GRK6 (human))?
Answer: 96.2%

Question: What about the residual activity (SRMS (human)) of the same compound?
Answer: 95.9%

Question: What about the residual activity (PNCK (human)) of the same compound?
Answer: 103%

Question: And the residual activity (WEE1 (human))?
Answer: 85.1%

Question: And the residual activity (EPHA1 (human))?
Answer: 76.2%

Question: What about the residual activity (ULK2 (human)) of the same compound?
Answer: 96.1%

Question: And the residual activity (WNK2 (human))?
Answer: 96.5%

Question: What about the residual activity (RPS6KB2 (human)) of the same compound?
Answer: 65.4%

Question: What about the residual activity (NEK11 (human)) of the same compound?
Answer: 91.6%

Question: What about the residual activity (EPHA2 (human)) of the same compound?
Answer: 91.3%

Question: What about the residual activity (PIM1 (human)) of the same compound?
Answer: 11.6%

Question: And the residual activity (SRPK2 (human))?
Answer: 88%

Question: And the residual activity (EPHB3 (human))?
Answer: 97%

Question: What about the residual activity (ACVRL1 (human)) of the same compound?
Answer: 87.8%

Question: And the residual activity (CSNK2A2 (human))?
Answer: 99.3%

Question: What about the residual activity (MAP3K9 (human)) of the same compound?
Answer: 57.6%

Question: And the residual activity (MAPKAPK3 (human))?
Answer: 92.3%

Question: And the residual activity (ERBB2 (human))?
Answer: 115%

Question: How did the residual activity (CSNK2A1 (human)) turn out when O=C1NC(=O)c2c1c1c3ccccc3[nH]c1n1cncc21 was run?
Answer: 52.6%

Question: What about the residual activity (PRKCE (human)) of the same compound?
Answer: 84.9%

Question: And the residual activity (VRK1 (human))?
Answer: 78.1%

Question: What about the residual activity (NTRK1 (human)) of the same compound?
Answer: 89.8%

Question: What about the residual activity (HIPK2 (human)) of the same compound?
Answer: 94.4%

Question: And the residual activity (CDK4 CCND3 (human))?
Answer: 87.1%

Question: What about the residual activity (ULK1 (human)) of the same compound?
Answer: 97.2%

Question: What about the residual activity (CDK1 CCNB1 (human)) of the same compound?
Answer: 85.5%

Question: What about the residual activity (FGFR4 (human)) of the same compound?
Answer: 78.6%

Question: And the residual activity (CDK2 CCNA2 (human))?
Answer: 75.9%

Question: And the residual activity (MET (human))?
Answer: 93.4%

Question: And the residual activity [1]?
Answer: 56.6%

Question: And the residual activity (CDK5 CDK5R1 p25 (human))?
Answer: 89.4%

Question: What about the residual activity (RPS6KA3 KD1 KD2 (human)) of the same compound?
Answer: 47.4%

Question: What about the residual activity (PKN2 (human)) of the same compound?
Answer: 95.5%

Question: And the residual activity (HCK (human))?
Answer: 94.6%

Question: And the residual activity (TBK1 (human))?
Answer: 81.9%

Question: What about the residual activity (CLK4 (human)) of the same compound?
Answer: 99%

Question: What about the residual activity (AURKA (human)) of the same compound?
Answer: 34.8%

Question: What about the residual activity (RPS6KA4 KD2 (human)) of the same compound?
Answer: 61.3%

Question: And the residual activity (GRK4 (human))?
Answer: 101%

Question: And the residual activity (ROS1 (human))?
Answer: 77%

Question: And the residual activity (NUAK2 (human))?
Answer: 80.1%

Question: And the residual activity (GRK6 (human))?
Answer: 82.1%

Question: And the residual activity (SRMS (human))?
Answer: 100%

Question: And the residual activity (PNCK (human))?
Answer: 105%

Question: And the residual activity (WEE1 (human))?
Answer: 94.7%

Question: What about the residual activity (EPHA1 (human)) of the same compound?
Answer: 72.4%

Question: What about the residual activity (ULK2 (human)) of the same compound?
Answer: 95.5%

Question: And the residual activity (WNK2 (human))?
Answer: 86.6%

Question: And the residual activity (RPS6KB2 (human))?
Answer: 74.7%

Question: And the residual activity (NEK11 (human))?
Answer: 99%

Question: And the residual activity (EPHA2 (human))?
Answer: 102%

Question: And the residual activity (PIM1 (human))?
Answer: 1.43%

Question: What about the residual activity (SRPK2 (human)) of the same compound?
Answer: 80.2%

Question: What about the residual activity (EPHB3 (human)) of the same compound?
Answer: 79.7%

Question: What about the residual activity (ACVRL1 (human)) of the same compound?
Answer: 109%

Question: And the residual activity (CSNK2A2 (human))?
Answer: 53.4%

Question: And the residual activity (MAP3K9 (human))?
Answer: 72.5%

Question: And the residual activity (MAPKAPK3 (human))?
Answer: 88.7%

Question: And the residual activity (ERBB2 (human))?
Answer: 109%

Question: What does the source list for c1ccc2c(-c3ccncc3)c[nH]c2c1?
Answer: residual activity (CSNK2A1 (human)): 95%; residual activity (PRKCE (human)): 81.5%; residual activity (VRK1 (human)): 101%; residual activity (NTRK1 (human)): 97%; residual activity (HIPK2 (human)): 94.1%; residual activity (CDK4 CCND3 (human)): 102%; residual activity (ULK1 (human)): 83.8%; residual activity (CDK1 CCNB1 (human)): 96%; residual activity (FGFR4 (human)): 84.6%; residual activity (CDK2 CCNA2 (human)): 99.7%; residual activity (MET (human)): 91.4%; residual activity [1]: 119%; residual activity (CDK5 CDK5R1 p25 (human)): 92%; residual activity (RPS6KA3 KD1 KD2 (human)): 97.4%; residual activity (PKN2 (human)): 80.8%; residual activity (HCK (human)): 99.5%; residual activity (TBK1 (human)): 93.4%; residual activity (CLK4 (human)): 101%; residual activity (AURKA (human)): 78%; residual activity (RPS6KA4 KD2 (human)): 91%; residual activity (GRK4 (human)): 94.9%; residual activity (ROS1 (human)): 81.6%; residual activity (NUAK2 (human)): 136%; residual activity (GRK6 (human)): 103%; residual activity (SRMS (human)): 107%; residual activity (PNCK (human)): 98.5%; residual activity (WEE1 (human)): 89.3%; residual activity (EPHA1 (human)): 105%; residual activity (ULK2 (human)): 106%; residual activity (WNK2 (human)): 96.9%; residual activity (RPS6KB2 (human)): 97.8%; residual activity (NEK11 (human)): 76.9%; residual activity (EPHA2 (human)): 106%; residual activity (PIM1 (human)): 93.5%; residual activity (SRPK2 (human)): 103%; residual activity (EPHB3 (human)): 100%; residual activity (ACVRL1 (human)): 100%; residual activity (CSNK2A2 (human)): 94.9%; residual activity (MAP3K9 (human)): 83.3%; residual activity (MAPKAPK3 (human)): 97.8%; residual activity (ERBB2 (human)): 95.6%
